Results taken from patent publication US10682427B2, “Intra-operative imaging” (BRACCO IMAGING S.P.A., priority 2014, dated 2020).

Tests used:
[1] = Normalized excitation and emission spectra; type: physicochemical
Text: The normalized excitation and emission spectra of the NIR agent in PBS (ex/em: 674/694; Stokes Shift: 20 nm) and in SERONORM (human-based control serum) (694/704, Stokes Shift 10 nm) are shown in FIG. 2. As shown in the figure, the interaction of the DA364 contrast agent with serum albumin promotes the shift of the emission maximum from 694 nm to 704 nm (in PBS and in SERONORM (human-based control serum) respectively) and also the reduction of the Stokes shift.

[2] = Determination of the molar extinction coefficient (UV-VIS absorbance, linear regression); type: physicochemical; settings: in PBS
Procedure: Two standard stock solutions containing the NIR agent in PBS at 1000 μM (sol I: 1.27 mg, 0.884 mL) and 1250 μM (sol II: 7.03 mg, 3.915 mL) were prepared. Diluted standard solutions were then prepared as reported in Table A by diluting the stock solutions in an appropriate volumetric flask using PBS. The absorbance of each standard diluted solution was measured without any further dilution.
The absorbance of each diluted standard solutions was measured and the molar extinction coefficient of DA364 was calculated from the slope of the linear regression reported in FIG. 1. The measured extinction coefficient in this condition was 208500 M^−1·cm^−1 (corresponding to 83% of the theoretical value reported for Cy5.5 dye: 250000 M^−1·cm^−1).

U-87MG tumor = experiment: In vivo and ex vivo fluorescence imaging of tumor uptake (IVIS Spectrum); design: species or system mice
Procedure: (§1) A431 cells were collected and washed two times with PBS. Five million cells were resuspended in 0.1 mL of DMEM high glucose medium and subcutaneously injected in the right flank of all mice. Eleven days after A431 inoculation, U-87MG cells were collected and washed two times with PBS. Two million cells were resuspended in 0.1 mL of EMEM medium and subcutaneously injected in the left flank of same animals previously injected with A431 cells.
(§2) Three weeks after A431 tumor implantation five mice were administered with 1 nmol of DA364 for a total administration volume of 0.2 mL (inj. rate 1 mL/min). In vivo OI acquisitions have been carried out 5 min, 15 min, 30 min, 1 h, 2 h, 3 h, 4 h, 6 h, 24 h and 48 hours after intravenous administration of the fluorescent probe using the IVIS Spectrum optical imaging system (Perkin Elmer). During OI experiments animals were kept under 3-4% Sevofluorane gas anaesthesia (O2 97.0-96.0%). During anaesthesia animals body temperature has been stabilized at about 37° C. using a heated bed.
(§3) Following in vivo OI experiments, 48 hours after probes injection, animals were sacrificed. Tumors, liver, kidneys, heart and spleen were excised for ex vivo fluorescent signal measure on the whole excised tumor or organ.
(§4) Fluorescence intensity from U-87 MG and A431 tumors was measured in vivo together with the signal coming from the normal healthy tissues (background).
(§5) The fluorescent signal (expressed as Radiant Efficiency (RE): p/s/(μW/cm^2), where p is the photon count), was then measured on the excised ex vivo samples using the IVIS Spectrum optical imaging system (Perkin Elmer).

A431 tumor = experiment: as above; design: species or system mice
Procedure: as §1, §2, §3, §4, §5

αvβ3 integrin = αvβ3 integrin (Homo sapiens, UniProt P05106+P06756); experiment: In vitro competitive binding assay with biotinylated vitronectin; settings: competitor biotinylated vitronectin 1 μg/mL, average value from a triplicate test, read-out: IC50 (vitronectine IC50)
Procedure: (§6) The affinity of DA364 for its specific targeted (the integrin αvβ3) and its crossreactivity for other integrins (e.g. αvβ1, αvβ5) was assessed by in vitro binding tests.
(§7) A 96-well microtiter plate (MediSorp, Nunc) was coated overnight at 4° C., with tested integrins (0.5 μg/mL, diluted in coating/washing buffer (20 mM Tris HCl pH 7.4; 150 mM NaCl; 1 mM MnCl2; 0.5 mM MgCl2; 2 mM CaCl2). After coating, the plate is rinsed with washing buffer and then incubated in blocking buffer (3% BSA in coating buffer) for 2 h at room temperature (RT) (24° C. in Thermomixer, under shaking). The plate was then rinsed in washing buffer and incubated at RT for 3 h with DA364 (concentration range from 5000 to 0.005 nM). DA364 solutions were prepared by serially diluting a stock solution of the NIR agent in 1% BSA in coating buffer in presence of biotinylated vitronectin (1 μg/mL, cod. HVN-U605, Molecular Innovations). The plate is then rinsed again and incubated with Streptavidin-HRP (cod.EG RPN 1051, GE Healthcare) (1:10000 in PBS) 1 h at RT, binding the biotinylated vitronectin. After additional washes in PBS, the plate was incubated with TMB solution (3,3′,5,5′-tetramethylbenzidine) (cod.T-0440, Sigma-Aldrich) for 5-10 min and the colorimetric reaction was then stopped by addition of 2 N sulfuric acid. The quantification of the IC50 for DA364 was performed by measuring the competitor (biotinylated vitronectin) by reading the absorbance at 450 nm. IC50 values were determined by least-square non-linear regression analysis.

αvβ1 integrin = αvβ1 integrin (Homo sapiens, UniProt P05556+P06756); experiment: as above; settings: competitor biotinylated vitronectin 1 μg/mL, read-out: IC50 (vitronectine IC50)
Procedure: as §6, §7

αvβ5 integrin = αvβ5 integrin (Homo sapiens, UniProt P06756+P18084); experiment: as above; settings: competitor biotinylated vitronectin 1 μg/mL, read-out: IC50 (vitronectine IC50)
Procedure: as §6, §7

[3] = SERONORM (human-based control serum)
[4] = ex vivo, 48 hours after 1 nmol i.v.

CC[N+]1=C(/C=C/C=C/C=C2/N(CCCCCC(=O)NC[C@@H]3C[C@@H]4CC[C@H]5C(=O)N[C@@H](CCCNC(=N)N)C(=O)NCC(=O)N[C@@H](CC(=O)O)C(=O)N[C@H]3C(=O)N45)c3ccc4c(S(=O)(=O)O)cc(S(=O)(=O)O)cc4c3C2(C)C)C(C)(C)c2c1ccc1c(S(=O)(=O)[O-])cc(S(=O)(=O)O)cc21 [DA364]
Stokes Shift ([1]; PBS): 20 nm
emission maximum (em) ([1]; PBS): 694 nm
excitation maximum (ex) ([1]; PBS): 674 nm
Stokes Shift [1, 3]: 10 nm
emission maximum (em) [1, 3]: 704 nm
excitation maximum (ex) [1, 3]: 694 nm
extinction coefficient as percent of the theoretical value reported for Cy5.5 dye [2]: 83%
molar extinction coefficient [2]: 208500 M⁻¹ cm⁻¹
tumor signal ratio with respect to the background (U-87MG tumor; U-87 MG tumor in vivo, 3 hours to 24 hours after injection): stable signal ratio
fluorescence signal in U-87MG tumor relative to A431 tumor (U-87MG tumor; [4]): about twice
Fluorescence Signal (Radiant Efficiency) (U-87MG tumor; excised U87-MG tumor ex vivo, 48 hours after 1 nmol i.v.): 6.78E+08 p/s/(μW/cm^2)
tumor signal ratio with respect to the background (A431 tumor; A431 tumor in vivo, 3 hours to 24 hours after injection): stable signal ratio
fluorescence intensity in A431 tumors relative to heart and spleen (background) (A431 tumor; [4]): about 10 times
fluorescence intensity in A431 tumors relative to liver and kidney (A431 tumor; [4]): comparable
Fluorescence Signal (Radiant Efficiency) (A431 tumor; excised A431 tumor ex vivo, 48 hours after 1 nmol i.v.): 3.47E+08 p/s/(μW/cm^2)
visualization of tumor under skin (FIG. 9) (A431 tumor; low-integrin expressing tumor A431, in vivo fluorescence imaging): clear visualization
IC50 (αvβ3 integrin): 3.76 nM
IC50 (αvβ1 integrin): 28 nM
IC50 (αvβ5 integrin): 281 nM
